Assay results reported in US20230372433A1, “NANOPARTICLE FOR ANTI-CANCER PEPTIDES AND USES THEREOF” (KING'S COLLEGE LONDON, priority 2020, published 2023).
Where two headings read alike, the source gives them in different places.

Assays:
[1] = test system: HMLER (human breast cancer bulk cell); experiment: MTT cytotoxicity assay, HMLER; type: cell-based; conditions: 72 hr, MTT; read-out: IC50 HMLER
[2] = test system: HMLER-shEcad (human breast cancer stem cell); experiment: MTT cytotoxicity assay, HMLER-shEcad; type: cell-based; conditions: 72 hr, MTT; read-out: IC50 HMLER-shEcad
[3] = test system: MCF-10A (human breast epithelial cell); experiment: cells
Excerpt: HMLER (human mammary endothelial cancer cells), HMLER-shEcad (human mammary endothelial cancer stem cells), and MCF-10A (healthy human mammary endothelial) cells were maintained in Mammary Epithelial Cell Growth Medium (MEGM) with supplements and growth factors: bovine pituitary extract (BPE), hydrocortisone, human epidermal growth factor (hEGF), insulin, and gentamicin/amphotericin-B. HEK293T (human embryonic kidney cell), and U2OS (homo sapiens bone osteosarcoma) cells were maintained in Dulbecco's Modified Eagle's Medium (DMEM) with a final concentration of 10% fetal bovine serum. The cells were grown in T75 flask at 310 K in a humidified atmosphere containing 5% CO2.
The colourimetric MTT (3-(4,5-dimethylthiazol-2-yl)-2,5-diphenyltetrazolium bromide) assay was used to determine the toxicity of the anti-cancer peptides and conventional anti-cancer drugs. 5×10^3 cells were seeded in each well of a 96-well microplate. The cells were incubated overnight. Elevated concentrations of the compounds (0, 0.1, 0.2, 0.4, 0.8, 1.6, 3.1, 6.3, 12.5, 25, 50 and 100 μM) were added and incubated for 72 hr with a total volume 200 μL. The stock solutions of the compounds were prepared as 5 mM solutions in DMSO and diluted using media or in pure water. The final concentration of DMSO in each well was either 0.5% or 0% and this amount was present in the untreated control. After 72 hr, 20 μL of a 4 mg/mL solution of MTT in PBS was added to each well, and the plate was incubated for an additional 4 hr. The MEGM/MTT mixture was aspirated and 100 μL of DMSO was added to dissolve the resulting purple formazan crystals. The absorbance of the solutions in each well was read at 550 nm wavelength. Absorbance values were normalized to either DMSO-containing or non DMSO-containing control wells and plotted as concentration of test compound versus % cell viability. ICso values were interpolated from the resulting dose dependent curves.
The peptides were screened against several different human cell lines and their cytotoxicity were determined. Cell lines utilised include MCF-10A (human breast epithelial cell), HMLER (human breast cancer bulk cell), HMLER-shEcad (human breast cancer stem cell), HEK293T (human embryonic kidney cell), and U2OS (human bone osteosarcoma).

[4] = test system: U2OS (human bone osteosarcoma); experiment: MTT cytotoxicity assay, U2OS; type: cell-based; conditions: 72 hr
[5] = test system: HEK293T (human embryonic kidney cell); experiment: MTT cytotoxicity assay, HEK293T; type: cell-based; conditions: 72 hr, MTT; read-out: IC50 HEK293T
[6] = Tryptophan fluorescent binding assay, POPC vesicles; conditions: 50 μM peptide, PBS pH 7.4
Method: (§1) In brief, 50 μM peptides were fixed and incubated with titrated POPC vesicles (black) or 3POPC/1POPG vesicles (grey) at concentrations of 0, 12.5, 25, 50, 100, 250, 500, 1000, 2500, and 5000 μM in phosphate buffered saline (1X, pH 7.4). The lipid concentration that causes 50% peptide binding was determined using a tryptophan fluorescent binding assay and the values are shown as lipid per peptide.
(§2) The lipids 1-palmitoyl-2-oleoyl-sn-glycero-3-phosphocholine (POPC), 1-palmitoyl-2-oleoyl-snglycero-3-phospho-(1′-rac-glycerol) (POPG) were purchased from Avanti Polar Lipids and dissolved in chloroform. Large unilamellar vesicles (LUVs) were produced by extrusion through 100 nm pore filter using an extruder and filters purchased from Avanti Polar Lipids.
(§3) Peptides (50 μM) and POPC/POPG LUVs (600 μM) were prepared in 10 mM phosphate buffer (pH 7.0). The solutions were incubated and measured after 60 minutes. Excitation was fixed at 280 nm (slit 9 nm) and emission was collected from 300 to 450 nm (slit 9 nm). The spectra were recorded using a Synergy H1 Hybrid Multi-Mode Reader (FIG. 3A) and Cytation™ 5 Cell Imaging Multi-Mode Reader (FIG. 2) from BioTek and were averaged over 3 scans.
(§4) Table 3 illustrates the lipid concentration-induced 50% peptide binding onto a liposome. 50 μM peptide was fixed and incubated with titrated lipid (POPC vesicles or 3POPC/1POPG vesicles) at concentrations of 0, 12.5, 25, 50, 100, 250, 500, 1000, 2500, and 5000 μM in phosphate buffered saline (1X, pH 7.4). The lipid concentration that causes 50% peptide binding was determined using tryptophan fluorescent binding assay and the values are shown as lipid per peptide. IN-terminus is free, C-terminus: —W—NH2.

[7] = Tryptophan fluorescent binding assay, 3POPC/1POPG vesicles; conditions: 50 μM peptide, PBS pH 7.4
Method: as §1, §2, §3, §4

[8] = ANTS/DPX liposome leakage assay, POPC vesicles; type: biochemical; conditions: 0.5 mM vesicles
Method: (§5) In brief, 0.5 mM POPC vesicles (grey) or POPC:POPG vesicles (ratio 3:1, black) were incubated with peptide concentrations of 0, 0.02, 0.04, 0.08, 0.16, 0.32, 0.64, 1.25, 2.5, 5, 10, and 20 μM in each A) hydrochloric acid-adjusted phosphate buffered saline (1X, pH 4.8) and B) phosphate buffered saline (1X, pH 7.4).
as §2
(§6) 5 mM ANTS (8-aminonaphthalene-1,3,6-trisulfonic acid, disodium salt) and 12.5 mM DPX (p-xylene-bis-pyridinium bromide) were entrapped in 0.1 μm diameter extruded vesicles with lipids. Gel filtration chromatography using a Sephadex G-100 (GE Healthcare Life Sciences Inc) was used to remove external free ANTS/DPX from LUVs with entrapped contents. LUVs were diluted to 0.5 mM and used to measure the leakage activity by addition of aliquots of peptides. Leakage was measured after 3 h incubation. 10% Triton was used as the positive control to measure the maximum leakage of the vesicle. Fluorescence emission spectra were recorded using excitation and emission wavelength of 350 nm and 510 nm for ANTS/DPX using a BioTek Synergy H1 Hybrid Multi-Mode Reader.
(§7) Table 4 illustrates peptide concentration-induced 50 ANTS/DPX liposome leakage. 0.5 mM POPC and 3POPC/1POPG vesicles were fixed and incubated with titrated peptide concentration (0, 0.02, 0.04, 0.08, 0.16, 0.32, 0.64, 1.25, 2.5, 5, 10, and 20 μM) each in phosphate buffered saline (1X, pH 7.4) and hydrochloric acid-adjusted phosphate buffered saline (1X, pH 4.8). The values are shown as lipid per peptide. IN-terminus is free, C-terminus: —W—NH2.

[9] = ANTS/DPX liposome leakage assay, 3POPC/1POPG vesicles; type: biochemical; conditions: for Peptide Concentration-induced 50% ANTS/DPX leakage at pH 4.8 (L/P) 3POPC/1POPG Vesicle / Peptide Concentration-induced 50% ANTS/DPX leakage at pH 7.4 (L/P) 3POPC/1POPG Vesicle: 0.5 mM vesicles
Method: as §5, §2, §6, §7

[10] = read-out: IC50 MCF-10A, 72 hr, MTT

Row | Compound | IC50 [1] [µM] | IC50 [2] [µM] | IC50 [3] [µM] | IC50 [4] [µM] | IC50 [5] [µM] | Lipid Concentration-induced 50% Peptide Binding (L/P) POPC Vesicle [6] [L/P] | Lipid Concentration-induced 50% Peptide Binding (L/P) 3POPC/1POPG Vesicle [7] [L/P] | Peptide Concentration-induced 50% ANTS/DPX leakage at pH 4.8 (L/P) POPC Vesicle [8] [L/P] | Peptide Concentration-induced 50% ANTS/DPX leakage at pH 7.4 (L/P) POPC Vesicle [8] [L/P] | Peptide Concentration-induced 50% ANTS/DPX leakage at pH 4.8 (L/P) 3POPC/1POPG Vesicle ([9]; pH 4.8) [L/P] | Peptide Concentration-induced 50% ANTS/DPX leakage at pH 7.4 (L/P) 3POPC/1POPG Vesicle [9] [L/P] | liposome leakage activity from anionic vesicle at pH 4.8 ([9]; compared with zwitterionic vesicle, pH 4.8) | IC50 [3, 10] [µM]
1 | CC(C)C[C@H](NC(=O)CN)C(=O)N[C@@H](CC(C)C)C(=O)N[C@@H](CC(=O)O)C(=O)N[C@@H](CC(C)C)C(=O)N[C@@H](CC(C)C)C(=O)N[C@@H](CCC(=O)O)C(=O)N[C@@H](CC(C)C)C(=O)N[C@@H](CC(C)C)C(=O)N[C@@H](CC(C)C)C(=O)N[C@@H](CCCCN)C(=O)N[C@@H](C)C(=O)N[C@@H](C)C(=O)NCC(=O)N[C@@H](Cc1c[nH]c2ccccc12)C(N)=O [DEK] | 1.14 ± 0.52 | 0.7 ± 0.07 | ≥ 100 | 19.9 ± 2.65 | 6.8 ± 0.85 | 1.50 | 1.67 | 10 | 747 | 469 | 773 | relatively higher liposome leakage activity | –
2 | CC(C)C[C@H](NC(=O)CN)C(=O)N[C@@H](CC(C)C)C(=O)N[C@@H](CCC(=O)O)C(=O)N[C@@H](CC(C)C)C(=O)N[C@@H](CC(C)C)C(=O)N[C@@H](CCC(=O)O)C(=O)N[C@@H](CC(C)C)C(=O)N[C@@H](CC(C)C)C(=O)N[C@@H](CC(C)C)C(=O)N[C@@H](CCC(=O)O)C(=O)N[C@@H](C)C(=O)N[C@@H](C)C(=O)NCC(=O)N[C@@H](Cc1c[nH]c2ccccc12)C(N)=O [EEE] | 6.25 ± 1.77 | 10.6 ± 3.46 | ≥ 100 | 78.8 ± 5.3 | 50 | 1.33 | 4.50 | 35 | 143 | 28 | 346 | – | –
3 | GLDDLAKLLLKLAG [25B2, reference compound] | 8.36 ± 0.61 | 11.7 ± 0.49 | – | 54 ± 8.43 | 25.2 ± 2.19 | – | – | – | – | – | – | – | 26.7 ± 3.33
4 | GLLDLLHLLLHAAG [DHH] | 21.4 ± 2.47 | 11.9 ± 0.14 | – | 55.9 ± 18.9 | 6.4 ± 0.42 | 0.67 | 0.28 | 106 | 684 | 98 | 692 | – | –
5 | GLLELLHLLLHAAG [EHH] | 25.4 ± 2.76 | 16.1 ± 3.18 | – | – | 5.9 ± 0.14 | 0.94 | 0.69 | 386 | 1043 | 80 | 981 | – | –
6 | GLLHLLELLLHAAG [HEH] | 28.6 ± 10.8 | 11 ± 1.06 | – | – | 8.8 ± 1.7 | 0.88 | 3.50 | 173 | 995 | 24 | 505 | – | –
7 | GLLHLLELLLKAAG [HEK] | 2.35 ± 1.06 | 3.45 ± 2.19 | – | – | 6.95 ± 1.63 | 0.44 | 0.46 | 97 | 755 | 411 | 386 | – | 29.8 ± 7.35
8 | GLLHLLHLLLEAAG [HHE] | 16.7 ± 2.26 | 10.8 ± 0.78 | – | 53.2 ± 5.3 | 18.4 ± 3.75 | 1.00 | 0.75 | 143 | 842 | 113 | 411 | – | –
9 | GLLHLLHLLLHAAG [HHH] | 21.1 ± 6.93 | 9.5 ± 0.99 | – | – | 30.6 ± 4.81 | 0.46 | 0.82 | 173 | 1133 | 50 | 469 | – | 79 ± 11.3
